Consider 23 compounds from patent publication US10045983B2, “Heteroaryl pyridone and aza-pyrodine compounds” (Genentech, Inc., priority 2011, dated 2018).

Broadly, the IC70 is the point of the concentration-response curve where the effect stands at 70%.

Each structure is given as a SMILES string.

A short description of this assay: CD69 Whole Blood Assay (CD69 Hu Blood FACS). The class given is cell-based, human. Conditions: Lymphocyte; human whole blood, anti-IgM activated B lymphocytes, FACS; IC70; Table 2 (unit inferred); read-out: CD69 Hu Blood FACS (IC70). The method, boiled down: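 Human whole blood stimulated by crosslinking surface IgM with goat F(ab′)2 anti-human IgM; inhibition of CD69 expression on B lymphocytes measured by flow cytometry.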
As to `C[C@H]1CN(C2COC2)CCN1c1ccc(Nc2cc(-c3ccnc(-n4ncc5c(cc6n5CCCC6)c4=O)c3CO)cn(C)c2=O)nc1` [Example 193, 2-[3-(hydroxymethyl)-4-[1-methyl-5-[[5-[(2S)-2-methyl-4-(oxetan-3-yl)piperazin-1-yl]-2-pyridyl]amino]-6-oxo-3-pyridyl]-2-pyridyl]-6,7,8,9-tetrahydropyridazino[4,5-b]indolizin-1-one], the IC70 is 99.5 nM.
To `Cn1cc(-c2ccnc(-n3ncc4c5c(sc4c3=O)CCCC5)c2CO)cc(Nc2cnccn2)c1=O` [Example 194, 3-[3-(hydroxymethyl)-4-[1-methyl-6-oxo-5-(pyrazin-2-ylamino)-3-pyridyl]-2-pyridyl]-6,7,8,9-tetrahydrobenzothiopheno[2,3-d]pyridazin-4-one] belongs 1200 nM; to `CN1CCn2nc(Nc3cc(-c4ccnc(-n5ccn6c7c(cc6c5=O)CCCC7)c4CO)cn(C)c3=O)cc2C1` [Example 195, 2-[3-(hydroxymethyl)-4-[1-methyl-5-[(5-methyl-6,7-dihydro-4H-pyrazolo[1,5-a]pyrazin-2-yl)amino]-6-oxo-3-pyridyl]-2-pyridyl]-6,7,8,9-tetrahydropyrazino[1,2-a]indol-1-one], 101 nM; to `Cn1cc(-c2ccnc(N3CCn4c(cc5c4CCCC5)C3=O)c2CO)nc(Nc2ccc(N3CCN(C4COC4)CC3)nc2)c1=O` [Example 197, 2-[3-(hydroxymethyl)-4-[4-methyl-6-[[6-[4-(oxetan-3-yl)piperazin-1-yl]-3-pyridyl]amino]-5-oxo-pyrazin-2-yl]-2-pyridyl]-3,4,6,7,8,9-hexahydropyrazino[1,2-a]indol-1-one], 2300 nM.
Turning to `Cn1cc(-c2ccnc(-n3ncc4c5n(cc4c3=O)CCCC5)c2CO)cc(Nc2ccc(N3CCN(C4COC4)CC3)cn2)c1=O` [Example 198, 3-[3-(hydroxymethyl)-4-[1-methyl-5-[[5-[4-(oxetan-3-yl)piperazin-1-yl]-2-pyridyl]amino]-6-oxo-3-pyridyl]-2-pyridyl]-7,8,9,10-tetrahydropyridazino[4,5-a]indolizin-4-one], the IC70 amounted to 6000 nM.
The same measure for `Cn1cc(-c2ccnc(N3CCn4c(cc5c4CC(C)(C)C5)C3=O)c2CO)cc(Nc2ccn3ccnc3n2)c1=O` [Example 199, 3-[3-(hydroxymethyl)-4-[5-(imidazo[1,2-a]pyrimidin-7-ylamino)-1-methyl-6-oxo-3-pyridyl]-2-pyridyl]-7,7-dimethyl-1,2,6,8-tetrahydrocyclopenta[3,4]pyrrolo[3,5-b]pyrazin-4-one]: 934 nM.
With `Cn1cc(-c2ccnc(N3CCn4c(cc5c4CCCC5)C3=O)c2CO)cc(Nc2ccc(C3=CCN(C4COC4)CC3)cn2)c1=O` [Example 200, 2-[3-(hydroxymethyl)-4-[1-methyl-5-[[5-[1-(oxetan-3-yl)-3,6-dihydro-2H-pyridin-4-yl]-2-pyridyl]amino]-6-oxo-3-pyridyl]-2-pyridyl]-3,4,6,7,8,9-hexahydropyrazino[1,2-a]indol-1-one], the IC70 was found to be 636 nM.
Regarding `Cn1cc(-c2ccnc(N3CCn4c(cc5c4CC(C)(C)C5)C3=O)c2CO)nc(Nc2ccc3nccn3c2)c1=O` [Example 201, 3-[3-(hydroxymethyl)-4-[6-(imidazo[1,2-a]pyridin-6-ylamino)-4-methyl-5-oxo-pyrazin-2-yl]-2-pyridyl]-7,7-dimethyl-1,2,6,8-tetrahydrocyclopenta[3,4]pyrrolo[3,5-b]pyrazin-4-one], the IC70 is 3300 nM.
The same measure for `CN1CCn2nc(Nc3cc(-c4ccnc(-n5ncc6c7n(cc6c5=O)CCCC7)c4CO)cn(C)c3=O)cc2C1` [Example 202, 3-[3-(hydroxymethyl)-4-[1-methyl-5-[(5-methyl-6,7-dihydro-4H-pyrazolo[1,5-a]pyrazin-2-yl)amino]-6-oxo-3-pyridyl]-2-pyridyl]-7,8,9,10-tetrahydropyridazino[4,5-a]indolizin-4-one]: 7300 nM.
The same measure for `CN1CCc2nc(Nc3cc(-c4ccnc(N5CCn6c(cc7c6CC(C)(C)C7)C5=O)c4CO)cn(C)c3=O)sc2C1` [Example 203, 3-[3-(hydroxymethyl)-4-[1-methyl-5-[(5-methyl-6,7-dihydro-4H-thiazolo[5,4-c]pyridin-2-yl)amino]-6-oxo-3-pyridyl]-2-pyridyl]-7,7-dimethyl-1,2,6,8-tetrahydrocyclopenta[3,4]pyrrolo[3,5-b]pyrazin-4-one]: 60.5 nM; for `CN1CCn2nc(Nc3cc(-c4ccnc(-n5ncc6c(cc7n6CCCC7)c5=O)c4CO)cn(C)c3=O)cc2C1` [Example 204, 2-[3-(hydroxymethyl)-4-[1-methyl-5-[(5-methyl-6,7-dihydro-4H-pyrazolo[1,5-a]pyrazin-2-yl)amino]-6-oxo-3-pyridyl]-2-pyridyl]-6,7,8,9-tetrahydropyridazino[4,5-b]indolizin-1-one]: 436 nM.
To `Cn1cc(-c2ccnc(N3CCn4c(cc5c4CCCC5)C3=O)c2CO)cc(Nc2cc3n(n2)CCNC3)c1=O` [Example 205, 2-[3-(hydroxymethyl)-4-[1-methyl-6-oxo-5-(4,5,6,7-tetrahydropyrazolo[1,5-a]pyrazin-2-ylamino)-3-pyridyl]-2-pyridyl]-3,4,6,7,8,9-hexahydropyrazino[1,2-a]indol-1-one] belongs 114 nM; to `CN1CC(Oc2ccc(Nc3cc(-c4ccnc(N5CCn6c(cc7c6CCCC7)C5=O)c4CO)cn(C)c3=O)nc2)C1` [Example 206, 2-[3-(hydroxymethyl)-4-[1-methyl-5-[[5-(1-methylazetidin-3-yl)oxy-2-pyridyl]amino]-6-oxo-3-pyridyl]-2-pyridyl]-3,4,6,7,8,9-hexahydropyrazino[1,2-a]indol-1-one], 150 nM.
As for `CN1CC(Oc2ccc(Nc3cc(-c4ccnc(N5CCn6c(cc7c6CC(C)(C)C7)C5=O)c4CO)cn(C)c3=O)nc2)C1` [Example 207, 3-[3-(hydroxymethyl)-4-[1-methyl-5-[[5-(1-methylazetidin-3-yl)oxy-2-pyridyl]amino]-6-oxo-3-pyridyl]]-7,7-dimethyl-1,2,6,8-tetrahydrocyclopenta[3,4]pyrrolo[3,5-b]pyrazin-4-one], the IC70 stood at 41.4 nM.
To `CCN1CCn2nc(Nc3cc(-c4ccnc(N5CCc6c(cc7n6CCCC7)C5=O)c4CO)cn(C)c3=O)cc2C1` [Example 208, 2-[4-[5-[(5-ethyl-6,7-dihydro-4H-pyrazolo[1,5-a]pyrazin-2-yl)amino]-1-methyl-6-oxo-3-pyridyl]-3-(hydroxymethyl)-2-pyridyl]-3,4,6,7,8,9-hexahydropyrido[3,4-b]indolizin-1-one] belongs 580 nM; to `CC(=O)N1CCn2nc(Nc3cc(-c4ccnc(N5CCn6c(cc7c6CCCC7)C5=O)c4CO)cn(C)c3=O)cc2C1` [Example 209, 2-[4-[5-[(5-acetyl-6,7-dihydro-4H-pyrazolo[1,5-a]pyrazin-2-yl)amino]-1-methyl-6-oxo-3-pyridyl]-3-(hydroxymethyl)-2-pyridyl]-3,4,6,7,8,9-hexahydropyrazino[1,2-a]indol-1-one], 116 nM; to `C[C@H]1CN(C2COC2)CCN1c1ccc(Nc2cc(-c3ccnc(N4CCn5c(cc6c5CC(C)(C)C6)C4=O)c3C(N)=O)cn(C)c2=O)nc1` [Example 210, 2-(7,7-dimethyl-4-oxo-1,2,6,8-tetrahydrocyclopenta[3,4]pyrrolo[3,5-b]pyrazin-3-yl)-4-[1-methyl-5-[[5-[(2S)-2-methyl-4-(oxetan-3-yl)piperazin-1-yl]-2-pyridyl]amino]-6-oxo-3-pyridyl]pyridine-3-carboxamide], 914 nM.
The same measure for `CNC(=O)c1c(-c2cc(Nc3ccc(N4CCN(C5COC5)C[C@@H]4C)cn3)c(=O)n(C)c2)ccnc1N1CCn2c(cc3c2CC(C)(C)C3)C1=O` [Example 211, 2-(7,7-dimethyl-4-oxo-1,2,6,8-tetrahydrocyclopenta[3,4]pyrrolo[3,5-b]pyrazin-3-yl)-N-methyl-4-[1-methyl-5-[[5-[(2S)-2-methyl-4-(oxetan-3-yl)piperazin-1-yl]-2-pyridyl]amino]-6-oxo-3-pyridyl]pyridine-3-carboxamide]: 2100 nM; for `CC(=O)N1CCn2nc(Nc3cc(-c4ccnc(N5CCn6c(cc7c6CC(C)(C)C7)C5=O)c4CO)cn(C)c3=O)cc2C1` [Example 212, 3-[4-[5-[(5-acetyl-6,7-dihydro-4H-pyrazolo[1,5-a]pyrazin-2-yl)amino]-1-methyl-6-oxo-3-pyridyl]-3-(hydroxymethyl)-2-pyridyl]-7,7-dimethyl-1,2,6,8-tetrahydrocyclopenta[3,4]pyrrolo[3,5-b]pyrazin-4-one]: 15.2 nM; for `Cc1nccc(Nc2cc(-c3ccnc(N4CCn5c6c(c(F)c5C4=O)CCCC6)c3CO)cn(C)c2=O)n1` [Example 213, 10-fluoro-2-[3-(hydroxymethyl)-4-[1-methyl-5-[(2-methylpyrimidin-4-yl)amino]-6-oxo-3-pyridyl]-2-pyridyl]-3,4,6,7,8,9-hexahydropyrazino[1,2-a]indol-1-one]: 620 nM.
To `Cn1cc(-c2ccnc(N3CCn4c(cc5c4CC(C)(C)C5)C3=O)c2CO)cc(Nc2nc3c(s2)COCC3)c1=O` [Example 214, 3-[4-[5-(6,7-dihydro-4H-pyrano[4,3-d]thiazol-2-ylamino)-1-methyl-6-oxo-3-pyridyl]-3-(hydroxymethyl)-2-pyridyl]-7,7-dimethyl-1,2,6,8-tetrahydrocyclopenta[3,4]pyrrolo[3,5-b]pyrazin-4-one] belongs 124 nM; to `Cc1nccc(Nc2cc(-c3cncc(N4CCn5c(cc6c5CC(C)(C)C6)C4=O)c3CO)cn(C)c2=O)n1` [Example 215, 3-[4-(hydroxymethyl)-5-[1-methyl-5-[(2-methylpyrimidin-4-yl)amino]-6-oxo-3-pyridyl]-3-pyridyl]-7,7-dimethyl-1,2,6,8-tetrahydrocyclopenta[3,4]pyrrolo[3,5-b]pyrazin-4-one], 457 nM; to `CN1CCc2nc(Nc3cc(-c4ccnc(-n5ncc6c7c(sc6c5=O)CCCC7)c4CO)cn(C)c3=O)sc2C1` [Example 216, 3-[3-(hydroxymethyl)-4-[1-methyl-5-[(5-methyl-6,7-dihydro-4H-thiazolo[5,4-c]pyridin-2-yl)amino]-6-oxo-3-pyridyl]-2-pyridyl]-6,7,8,9-tetrahydrobenzothiopheno[2,3-d]pyridazin-4-one], 357 nM.
